Measured values from ChEMBL document CHEMBL1201862, “PubChem BioAssay data set” (2004).
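96-well plates; 48 h exposure; 5 concentrations. Endpoints by linear interpolation between flanking doses. Not reached: highest tested concentration assigned. Here, GI50 denotes the concentration required for 50% inhibition of growth.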 Calls of active or inactive are those of the source. No stated cut-off is given here; in the data, active = GI50 up to about 1.1 µM and inactive = higher.

Tests used:
Experiment in all cases: inhibition of tumour cell growth, NCI panel, 48 h
ACHN = system: ACHN
SF-539 = system: SF-539
A498 = system: A498
RXF 393 = system: RXF 393
K562 = system: K562
RPMI-8226 = system: RPMI-8226
CCRF-CEM = system: CCRF-CEM
HOP-92 = system: HOP-92
OVCAR-5 = system: OVCAR-5
NCI-H522 = system: NCI-H522
T47D = system: T47D
BT-549 = system: BT-549
SN12C = system: SN12C
SF-268 = system: SF-268
MDA-N = system: MDA-N
HOP-62 = system: HOP-62
CAKI-1 = system: CAKI-1
PC-3 = system: PC-3
OVCAR-8 = system: OVCAR-8
SK-OV-3 = system: SK-OV-3

Compound | GI50 (ACHN) | GI50 (SF-539) | GI50 (A498) | GI50 (RXF 393) | GI50 (K562) | GI50 (RPMI-8226) | GI50 (CCRF-CEM) | GI50 (HOP-92) | GI50 (OVCAR-5) | GI50 (NCI-H522) | GI50 (T47D) | GI50 (BT-549) | GI50 (SN12C) | GI50 (SF-268) | GI50 (MDA-N) | GI50 (HOP-62) | GI50 (CAKI-1) | GI50 (PC-3) | GI50 (OVCAR-8) | GI50 (SK-OV-3)
O=C(O)c1ccccc1-c1ccccc1C(=O)c1ccccc1 | > 100 µM (inactive) | > 100 µM (inactive) | > 100 µM (inactive) | > 100 µM (inactive) | > 100 µM (inactive) | > 100 µM (inactive) | > 100 µM (inactive) | 51.6 µM (inactive) | > 100 µM (inactive) | > 100 µM (inactive) | > 100 µM (inactive) | > 100 µM (inactive) | > 100 µM (inactive) | > 100 µM (inactive) | > 100 µM (inactive) | > 100 µM (inactive) | > 100 µM (inactive) | > 100 µM (inactive) | > 100 µM (inactive) | > 100 µM (inactive)
CN(C)CCSS(=O)(=O)O | > 100 µM (inactive) | > 100 µM (inactive) | > 100 µM (inactive) | > 100 µM (inactive) | > 100 µM (inactive) | > 100 µM (inactive) | > 100 µM (inactive) | > 100 µM (inactive) | > 100 µM (inactive) | 83.9 µM (inactive) | > 100 µM (inactive) | > 100 µM (inactive) | > 100 µM (inactive) | > 100 µM (inactive) | > 100 µM (inactive) | 15.4 µM (inactive) | > 100 µM (inactive) | > 100 µM (inactive) | > 100 µM (inactive) | 29.4 µM (inactive)
O=C(/C=N/O)Nc1cc(Cl)c(Cl)cc1Cl | 29.9 µM (inactive) | 31.6 µM (inactive) | 16.6 µM (inactive) | 31.5 µM (inactive) | 25.6 µM (inactive) | 27.9 µM (inactive) | 26.7 µM (inactive) | 26.9 µM (inactive) | 42.1 µM (inactive) | 24.9 µM (inactive) | 16.5 µM (inactive) | 27.2 µM (inactive) | 23.9 µM (inactive) | 33.3 µM (inactive) | 27.7 µM (inactive) | 31.6 µM (inactive) | 24.3 µM (inactive) | 33.2 µM (inactive) | 23.8 µM (inactive) | 27.8 µM (inactive)
CCOC(=O)COC1=Nc2cc(OC)c(OC)c3nc(Cl)cc(c23)C1=O | 1.66 µM (inactive) | 1.92 µM (inactive) | 11.4 µM (inactive) | 1.75 µM (inactive) | 1.2 µM (inactive) | 1.52 µM (inactive) | 0.299 µM (active) | 1.7 µM (inactive) | 1.94 µM (inactive) | 1.6 µM (inactive) | 2.96 µM (inactive) | 1.95 µM (inactive) | 1.8 µM (inactive) | 2.37 µM (inactive) | 1.18 µM (inactive) | 3.07 µM (inactive) | 1.96 µM (inactive) | 1.79 µM (inactive) | 2.43 µM (inactive) | 10.1 µM (inactive)
C[C@H](NC1=C(Cl)C(=O)c2c(O)ccc(O)c2C1=O)C(=O)Nc1ccc([N+](=O)[O-])cc1 | 2.94 µM (inactive) | 2.21 µM (inactive) | 2.39 µM (inactive) | 1.56 µM (inactive) | 10 µM (inactive) | 1.84 µM (inactive) | 0.305 µM (active) | 2.08 µM (inactive) | 1.77 µM (inactive) | 2.9 µM (inactive) | 3.25 µM (inactive) | 4.02 µM (inactive) | 1.6 µM (inactive) | 2.16 µM (inactive) | 2.4 µM (inactive) | 2.45 µM (inactive) | 4.13 µM (inactive) | 3.41 µM (inactive) | 2.37 µM (inactive) | 6.89 µM (inactive)
COC(O)C12OC3CO[Si](C(C)C)(C(C)C)O[Si](C(C)C)(C(C)C)OC3C1Oc1nc(=O)ccn12 (stereo not given) | 14.1 µM (inactive) | 15.7 µM (inactive) | 17.3 µM (inactive) | 11.9 µM (inactive) | 1.52 µM (inactive) | 1 µM (active) | 4.5 µM (inactive) | 10.1 µM (inactive) | 15.7 µM (inactive) | 4.88 µM (inactive) | 7.69 µM (inactive) | 15.5 µM (inactive) | 13.3 µM (inactive) | 9.91 µM (inactive) | 12.8 µM (inactive) | 13.7 µM (inactive) | 18.2 µM (inactive) | 4.7 µM (inactive) | 11.2 µM (inactive) | 17.7 µM (inactive)
CC1=CC(C)C/C=C/C2C3OC3(C)C(C)C3C(Cc4c[nH]c5ccccc45)NC(=O)C23C(=O)C=CC(=O)C1O (stereo not given) | 1.35 µM (inactive) | 6.97 µM (inactive) | 0.213 µM (active) | 1.38 µM (inactive) | 3.06 µM (inactive) | 0.272 µM (active) | 0.247 µM (active) | 0.9 µM (active) | 12.5 µM (inactive) | 1.4 µM (inactive) | 1.65 µM (inactive) | 4.56 µM (inactive) | 8.77 µM (inactive) | 15.1 µM (inactive) | 5.53 µM (inactive) | 6.79 µM (inactive) | 0.885 µM (active) | 11.6 µM (inactive) | 19.5 µM (inactive) | 12.4 µM (inactive)
Nc1ccc2c(SCC(=O)Nc3ccccc3-c3ccccc3NC(=O)CSc3c4ccccc4nc4cc(N)ccc34)c3ccccc3nc2c1 | 32.8 µM (inactive) | 32.1 µM (inactive) | 29.9 µM (inactive) | 34.9 µM (inactive) | 2.71 µM (inactive) | 8.47 µM (inactive) | 2.79 µM (inactive) | 43.5 µM (inactive) | 70 µM (inactive) | 6.52 µM (inactive) | 3.05 µM (inactive) | 42 µM (inactive) | 28.5 µM (inactive) | 37.1 µM (inactive) | 44.5 µM (inactive) | 33.7 µM (inactive) | 45.5 µM (inactive) | 22.2 µM (inactive) | 26.3 µM (inactive) | 43.2 µM (inactive)
O=C1c2cccc3cccc(c23)C(=O)N1CCCNCCCCNCCCN1C(=O)c2cccc3cccc(c23)C1=O | 0.757 µM (active) | 0.0843 µM (active) | 0.946 µM (active) | 0.0933 µM (active) | 0.0226 µM (active) | < 0.0205 µM (active) | < 0.01 µM (active) | 0.18 µM (active) | 0.316 µM (active) | < 0.0112 µM (active) | 0.515 µM (active) | 1.25 µM (inactive) | 0.104 µM (active) | 0.025 µM (active) | 0.256 µM (active) | 0.205 µM (active) | 0.857 µM (active) | 0.17 µM (active) | 0.177 µM (active) | 0.982 µM (active)
CC1=NNC(=O)C1C1CC(c2c[nH]c3ccccc23)=NN=C1Cl (stereo not given) | 86.1 µM (inactive) | 55.6 µM (inactive) | > 100 µM (inactive) | 45.8 µM (inactive) | 28.4 µM (inactive) | 23.7 µM (inactive) | 25.8 µM (inactive) | > 100 µM (inactive) | > 100 µM (inactive) | 45.8 µM (inactive) | 36.2 µM (inactive) | 37 µM (inactive) | 82 µM (inactive) | 55.6 µM (inactive) | 54.7 µM (inactive) | > 100 µM (inactive) | > 100 µM (inactive) | 56.5 µM (inactive) | > 100 µM (inactive) | > 100 µM (inactive)
c1ccc([B-]2(c3ccccc3)NCCCO2)cc1 | 35.4 µM (inactive) | 33.3 µM (inactive) | 47.9 µM (inactive) | 28.8 µM (inactive) | 97.7 µM (inactive) | 37.2 µM (inactive) | 34.5 µM (inactive) | 20.3 µM (inactive) | > 100 µM (inactive) | 33.4 µM (inactive) | 34.9 µM (inactive) | 31.4 µM (inactive) | 70.8 µM (inactive) | > 100 µM (inactive) | 42.7 µM (inactive) | > 100 µM (inactive) | 40.6 µM (inactive) | 20.9 µM (inactive) | 70.5 µM (inactive) | 85.7 µM (inactive)
Cc1cc2c(nn1)-c1ccccc1C2=O | > 10 µM (inactive) | > 10 µM (inactive) | > 10 µM (inactive) | > 10 µM (inactive) | > 10 µM (inactive) | > 10 µM (inactive) | > 10 µM (inactive) | > 10 µM (inactive) | > 10 µM (inactive) | > 10 µM (inactive) | > 10 µM (inactive) | > 10 µM (inactive) | > 10 µM (inactive) | > 10 µM (inactive) | > 10 µM (inactive) | > 10 µM (inactive) | > 10 µM (inactive) | > 10 µM (inactive) | > 10 µM (inactive) | > 10 µM (inactive)
